Test results taken from US8318447B2, “Use of bitter taste receptor to screen for compounds that offset the bitter taste of chlorogenic lactone containing coffee compositions” (Senomyx Inc., priority 2005, dated 2012).

Key:
Type in all cases: cell-based
hT2R14 = molecular target: T1, hT2R14 (Homo sapiens, UniProt Q9NYV8); assay: calcium imaging of HEK293 cells transfected with hT2R14 and chimeric G protein G16gust44; conditions: for response of HEK-293 cells that express hT2R14: 2 mM concentrations, FIG. 3; for response of hT2R14 (increase in intracellular calcium concentration): different concentrations, FIG. 2
T1 construct: expressed in transfected cells; host or cells: human embryonic kidney (HEK293) cells, transient transfection
T1 sequence (Q9NYV8 1-317): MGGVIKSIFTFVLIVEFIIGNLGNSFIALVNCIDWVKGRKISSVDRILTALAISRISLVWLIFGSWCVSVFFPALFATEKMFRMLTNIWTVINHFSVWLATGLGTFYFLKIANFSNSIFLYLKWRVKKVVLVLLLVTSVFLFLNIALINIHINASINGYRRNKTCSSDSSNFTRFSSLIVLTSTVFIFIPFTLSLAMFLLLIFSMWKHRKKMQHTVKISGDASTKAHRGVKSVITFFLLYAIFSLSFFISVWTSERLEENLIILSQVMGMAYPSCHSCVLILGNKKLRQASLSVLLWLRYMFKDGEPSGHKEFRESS
Procedure: (§1) More particularly, the present inventors transfected HEK293 cells with a particular hT2R together with a chimeric G protein (G 16gust44) which comprises the Gα16 G protein sequence modified by the replacement of carboxy-44 amino acid residues with those of gustducin, and recorded responses of these cells to specific bitter ligands by calcium imaging methods.
(§2) Activation of these receptors by 3CoQAL is measured in a cell-based assay detecting changes in intracellular calcium concentration. In brief, human embryonic kidney cells are seeded in 48-well tissue culture plates. 24 hours later, the cells are transiently transfected with plasmid containing either the hT2R8, hT2R14 or hT2R54 nucleic acid sequence, and plasmid containing a chimeric G protein (G16gust44). Another 24 hours later, the cells are incubated with a fluorescent dye specific for calcium (Fluo-4 or Fura-2; Molecular Probes) that provides a fast, simple and reliable fluorescence-based method for detecting changes in calcium concentration inside the cell. Activation of the T2Rs elicits a signaling cascade leading to the activation of PLC and a subsequent increase in intracellular calcium concentration. This increase in calcium concentration changes the fluorescence properties of the calcium dye inside the cells. These changes are monitored using fluorescence microscopy and a specific design software (Imaging Workbench, Axon).
as §2, with “this receptor” for “these receptors”, “3CQAL and 4CQAL” for “3CoQAL”
as §2, with “this receptor” for “these receptors”, “4FQAL” for “3CoQAL”, “brief” for “brief,”

hT2R54 = molecular target: T2, hT2R54 (Homo sapiens, UniProt P59534); assay: calcium imaging of HEK293 cells transfected with hT2R54 and chimeric G protein G16gust44; conditions: for response of HEK-293 cells that express hT2R54: 2 mM concentrations, FIG. 3; for response of hT2R54 (increase in intracellular calcium concentration): different concentrations, FIG. 2 / FIG. 4
T2 construct: expressed in transfected cells; host or cells: human embryonic kidney (HEK293) cells, transient transfection
T2 sequence (P59534 18-338): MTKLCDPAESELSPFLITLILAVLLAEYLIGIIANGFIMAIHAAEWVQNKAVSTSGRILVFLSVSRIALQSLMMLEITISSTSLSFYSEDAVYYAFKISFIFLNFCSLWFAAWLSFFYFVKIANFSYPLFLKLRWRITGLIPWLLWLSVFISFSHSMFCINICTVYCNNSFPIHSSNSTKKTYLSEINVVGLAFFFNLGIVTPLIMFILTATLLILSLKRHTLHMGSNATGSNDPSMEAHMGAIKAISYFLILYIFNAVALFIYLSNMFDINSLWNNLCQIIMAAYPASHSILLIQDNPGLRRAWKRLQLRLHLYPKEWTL
Procedure: as §1, §2
as §2, with “this receptor” for “these receptors”, “3CQAL and 4CQAL” for “3CoQAL”
as §2, with “this receptor” for “these receptors”, “4FQAL” for “3CoQAL”, “brief” for “brief,”

hT2R8 = molecular target: T3, hT2R8 (Homo sapiens, UniProt Q9NYW2); assay: calcium imaging of HEK293 cells transfected with hT2R8 and chimeric G protein G16gust44; conditions: for response of HEK-293 cells that express hT2R8: 2 mM concentrations, FIG. 3; for response of hT2R8 (increase in intracellular calcium concentration): different concentrations, FIG. 2 / FIG. 4
T3 construct: expressed in transfected cells; host or cells: human embryonic kidney (HEK293) cells, transient transfection
T3 sequence (Q9NYW2 1-309): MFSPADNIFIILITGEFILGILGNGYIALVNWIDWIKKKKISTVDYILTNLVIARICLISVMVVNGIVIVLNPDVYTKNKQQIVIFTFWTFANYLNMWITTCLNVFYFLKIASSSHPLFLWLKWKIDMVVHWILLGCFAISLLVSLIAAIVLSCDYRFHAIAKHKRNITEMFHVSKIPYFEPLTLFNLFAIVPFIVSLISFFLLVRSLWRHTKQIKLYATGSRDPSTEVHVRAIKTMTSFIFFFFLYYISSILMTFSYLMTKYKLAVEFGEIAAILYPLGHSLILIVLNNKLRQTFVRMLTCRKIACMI
Procedure: as §1, §2
as §2, with “this receptor” for “these receptors”, “3CQAL and 4CQAL” for “3CoQAL”
as §2, with “this receptor” for “these receptors”, “4FQAL” for “3CoQAL”, “brief” for “brief,”

Row | response of HEK-293 cells that express hT2R14 (hT2R14) | response of HEK-293 cells that express hT2R54 (hT2R54) | response of HEK-293 cells that express hT2R8 (hT2R8) | response of hT2R14 (increase in intracellular calcium concentration) (hT2R14) | response of hT2R54 (increase in intracellular calcium concentration) (hT2R54) | response of hT2R8 (increase in intracellular calcium concentration) (hT2R8) | SMILES
1 | specifically respond | specifically respond | specifically respond |  |  |  | O=C(/C=C/c1ccc(O)c(O)c1)O[C@@H]1C[C@]2(O)C[C@@H](OC2=O)[C@@H]1O [3CQAL]
2 | specifically respond | specifically respond | specifically respond |  |  |  | O=C(C=Cc1ccc(O)c(O)c1)OC1C(O)CC2(O)CC1OC2=O (stereo not drawn) [4CQAL]
3 | do not respond | do not respond | do not respond | do not respond | do not respond | do not respond | OC[C@H]1O[C@@](CO)(O[C@H]2O[C@H](CO)[C@@H](O)[C@H](O)[C@H]2O)[C@@H](O)[C@@H]1O [sucrose]
4 |  |  |  | responded | responded | responded | O=C(C=Cc1ccc(O)cc1)OC1CC2(O)CC(OC2=O)C1O (stereo not drawn) [3CoQAL]
5 |  |  |  | specifically activate | responded specifically | responded specifically | COc1cc(/C=C/C(=O)O[C@@H]2[C@H](O)C[C@]3(O)C[C@H]2OC3=O)ccc1O [4FQAL]
